From patent US10786570B2, “Ferritin nanoparticle compositions and methods to modulate cell activity” (The Rockefeller University, priority 2011, dated 2020)

How the values were obtained:
Assay type in all cases: cell-based
[1] = system: HEK 293T cells expressing TRPV1^His and Ca2+-dependent human insulin construct; assay: RF dependent proinsulin release (ELISA)
Protocol: (§1) RF dependent release of calcium dependent human insulin: 24 h prior to the study, cells were placed in serum free medium at 32° C. to ensure minimal activation of TRPV1 and calcium dependent pathways. On the day of study, cells were preincubated for 30 min in 500 μl PBS or 500 μl of functionalized iron oxide nanoparticles (1 mg/ml) resuspended in PBS. Cells were washed three times in PBS before incubation in 300 μl of calcium imaging buffer at room temperature (control) or in a RF field at room temperature. The supernatant was removed at 15, 30, 45 or 60 min depending on the study, spun to remove cell debris and frozen at −80° C. until assay. For gene expression analysis, cells from the supernatant and cover glass were lysed and the lysate stored at […] until RNA purification. For apoptosis studies, the cells were incubated with functionalized nanoparticles at 1, 2, 4 or 8 mg/ml before RF treatment and immunocytochemistry. […]
(§2) Assays. Proinsulin was measured in cell supernatants by ELISA (Alpco, Salem, N.H.) according to manufacturer's protocol. Blood glucose was determined using a Breeze 2 glucometer (Bayer; Leverkusen, Germany). […] Plasma levels of human insulin, produced by xenografts, were determined in mouse plasma by human specific ELISA (Alpco).

[2] = system: HEK 293T cells transfected with TRPV1, BAPTM and calcium dependent human insulin; assay: RF dependent proinsulin release, dual component system; conditions: ruthenium red, TRPV1 BAP system
Protocol: as §1, §2

[3] = system: HEK 293T cells transfected with TRPV1, BAPTM and calcium dependent human insulin; assay: RF dependent insulin gene expression, dual component system; conditions: ruthenium red, TRPV1 BAP system
Protocol: (§3) RF dependent release of calcium dependent human insulin: 24 h prior to the study, cells were placed in serum free medium at 32° C. to ensure minimal activation of TRPV1 and calcium dependent pathways. On the day of study, cells were preincubated for 30 min in 500 μl PBS or 500 μl of functionalized iron oxide nanoparticles (1 mg/ml) resuspended in PBS. Cells were washed three times in PBS before incubation in 300 μl of calcium imaging buffer at room temperature (control) or in a RF field at room temperature. The supernatant was removed at 15, 30, 45 or 60 min depending on the study, spun to remove cell debris and frozen at −80° C. until assay. For gene expression analysis, cells from the supernatant and cover glass were lysed and the lysate stored at […] until RNA purification. For apoptosis studies, the cells were incubated with functionalized nanoparticles at 1, 2, 4 or 8 mg/ml before RF treatment and immunocytochemistry. For RF dependent time course from stable PC12 cells, cells were left in serum containing medium prior to treatment to more accurately replicate conditions in vivo before performing the studies as described above. Medium was removed for assay at 15 and 30 mins.
(§4) For studies examining the role of TRP channels in RF mediated proinsulin release, ruthenium red (100 μM) was added to the calcium imaging buffer. […]

[4] = system: HEK 293T cells expressing TRPV1^His and Ca2+-dependent human insulin construct; assay: RF dependent insulin gene expression (real-time PCR); conditions: ruthenium red
Protocol: as §3, §4

## C=CC[C@@H]1/C=C(\C)C[C@H](C)C[C@H](OC)[C@H]2O[C@@](O)(C(=O)C(=O)N3CCCC[C@H]3C(=O)O[C@H](/C(C)=C/[C@@H]3CC[C@@H](O)[C@H](OC)C3)[C@H](C)[C@@H](O)CC1=O)[C@H](C)C[C@@H]2OC [tacrolimus, Tacrolimus]
[1]; Tacrolimus 100 nM, preincubation 24 hours
  Effect on RF dependent proinsulin release: blocked

## N.N.N.N.N.N.N.N.N.N.N.N.N.N.[Cl-].[Cl-].[Cl-].[Cl-].[Cl-].[Cl-].[O-2].[O-2].[Ru+3].[Ru+3].[Ru+4] [ruthenium red]
[2]
  Effect on RF dependent proinsulin release: blocked
[3]
  Effect on RF dependent insulin gene expression: blocked
[4]
  Effect on RF dependent insulin gene expression: blocked
[1]; ruthenium red 100 μM in calcium imaging buffer
  Effect on RF dependent proinsulin release: blocked
